How the values were obtained:
rheumatoid arthritis = experiment: Case study: patient with rheumatoid arthritis treated orally; type: in vivo, human; settings: same patient, NSAIDs taken during the first 5 weeks of the disease onset
Description: This treatment was complemented with the regular practice of moderate physical exercises every 2-3 days, including exercises with weights, the application of cold or hot compresses, relaxation techniques, elevation of affected body parts, and at least 8 hours of sleep. Pain was treated with acetaminophen when needed. […] Then, the Omega 3-6-9 supplement was removed from the treatment and 100 mg niacin was added (Rite Aid Corporation, Harrisburg, Pa., USA) once a day during a week, twice a day for another week and 3 times daily for one more week (to a final dose of 300 mg/day). […] They never took DMARDs or steroids.

osteoarthritis = settings: subjects with OA, 3 g per day; cited from earlier work
[1] = test system: undercarboxylated osteocalcin; settings: healthy subjects, per day; cited from earlier work
[2] = natural vitamin K; cited from earlier work
[3] = in fish and flax seed oils; cited from earlier work

CC(C)Cc1ccc(C(C)C(=O)O)cc1 (stereo not drawn) [ibuprofen]
benefit of NSAIDs (rheumatoid arthritis): without any significative beneficial result

NC(=O)c1cccnc1 [nicotinamide]
NSAID medication and joint mobility compared with placebo controls (osteoarthritis): reduced their non-steroidal anti-inflammatory (NSAID) medication and increased joint mobility significantly

CC1=C(C/C=C(\C)CCC[C@H](C)CCC[C@H](C)CCCC(C)C)C(=O)c2ccccc2C1=O [vitamin K1, 2-methyl-3-phytyl-1-4-naphthoquinone]
daily intake at which circulating undercarboxylated osteocalcin began to decrease [1]: 300 µg

O=C(O)Cc1ccccc1Nc1c(Cl)cccc1Cl [diclofenac]
benefit of NSAIDs (rheumatoid arthritis): without any significative beneficial result

vitamin K
safe dose [2]: up to 15 milligrams per day
solubility [3]: soluble
